From ChEMBL document CHEMBL1201862, “PubChem BioAssay data set” (2004)
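Dose response: 5 concentrations. Exposure: 48 h. Format: 96-well plates. Endpoint: linear interpolation; highest concentration if not reached. GI50 is the concentration that inhibits growth by half.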 Calls of active or inactive are those of the source. No stated cut-off is given here; in the data, active = GI50 up to about 1.1 µM and inactive = higher.

How the values were obtained:
Experiment in all cases: growth of human tumour cells (NCI), 48 h
HT-29 = tested on: HT-29
HCC 2998 = tested on: HCC 2998
M14 = tested on: M14
COLO 205 = tested on: COLO 205
SNB-19 = tested on: SNB-19
T47D = tested on: T47D
ACHN = tested on: ACHN
SF-295 = tested on: SF-295
HOP-62 = tested on: HOP-62
UO-31 = tested on: UO-31
NCI/ADR-RES = tested on: NCI/ADR-RES
NCI-H226 = tested on: NCI-H226
UACC-257 = tested on: UACC-257
SK-MEL-5 = tested on: SK-MEL-5
786-0 = tested on: 786-0
MOLT-4 = tested on: MOLT-4
SK-MEL-28 = tested on: SK-MEL-28
A549 = tested on: A549
PC-3 = tested on: PC-3
OVCAR-4 = tested on: OVCAR-4

Row | SMILES | GI50 (HT-29) | GI50 (HCC 2998) | GI50 (M14) | GI50 (COLO 205) | GI50 (SNB-19) | GI50 (T47D) | GI50 (ACHN) | GI50 (SF-295) | GI50 (HOP-62) | GI50 (UO-31) | GI50 (NCI/ADR-RES) | GI50 (NCI-H226) | GI50 (UACC-257) | GI50 (SK-MEL-5) | GI50 (786-0) | GI50 (MOLT-4) | GI50 (SK-MEL-28) | GI50 (A549) | GI50 (PC-3) | GI50 (OVCAR-4)
1 | NC1CCN(c2nc3ccccc3c3c2CCCC3)CC1 | 2.11 µM (inactive) | 1.73 µM (inactive) | 1.99 µM (inactive) | 1.67 µM (inactive) | 8.67 µM (inactive) | 2.18 µM (inactive) | 8.87 µM (inactive) | 10.1 µM (inactive) | 15.1 µM (inactive) | 4.05 µM (inactive) | 12.2 µM (inactive) | 10.2 µM (inactive) | 2.1 µM (inactive) | 2.57 µM (inactive) | 3.8 µM (inactive) | 2.09 µM (inactive) | 2.73 µM (inactive) | 9.44 µM (inactive) | 7.89 µM (inactive) | 1.38 µM (inactive)
2 | COc1cc(OC)c2nc(C)c3c(c2c1)SCC3 | 40.6 µM (inactive) | 46.9 µM (inactive) | 41.4 µM (inactive) | > 100 µM (inactive) | 15.6 µM (inactive) | 26.3 µM (inactive) | 18.7 µM (inactive) | 27.5 µM (inactive) | 18.2 µM (inactive) | 21.9 µM (inactive) | 27.4 µM (inactive) | 20.4 µM (inactive) | 31.7 µM (inactive) | 21.3 µM (inactive) | 19.5 µM (inactive) | > 100 µM (inactive) | 31 µM (inactive) | 21.1 µM (inactive) | 20 µM (inactive) | 18.8 µM (inactive)
3 | c1ccc2c(c1)SC1=C(SC(=C3SC4=C(S3)Sc3ccccc3S4)S1)S2 | > 100 µM (inactive) | > 100 µM (inactive) | > 100 µM (inactive) | > 100 µM (inactive) | > 100 µM (inactive) | > 100 µM (inactive) | > 100 µM (inactive) | > 100 µM (inactive) | 36.9 µM (inactive) | > 100 µM (inactive) | > 100 µM (inactive) | > 100 µM (inactive) | > 100 µM (inactive) | > 100 µM (inactive) | 91 µM (inactive) | > 100 µM (inactive) | > 100 µM (inactive) | > 100 µM (inactive) | > 100 µM (inactive) | > 100 µM (inactive)
4 | Cc1cc2ncn(C3CCCCO3)c2cc1C (stereo not given) | > 100 µM (inactive) | > 100 µM (inactive) | > 100 µM (inactive) | > 100 µM (inactive) | > 100 µM (inactive) | > 100 µM (inactive) | > 100 µM (inactive) | > 100 µM (inactive) | > 100 µM (inactive) | 20.2 µM (inactive) | > 100 µM (inactive) | > 100 µM (inactive) | > 100 µM (inactive) | > 100 µM (inactive) | > 100 µM (inactive) | > 100 µM (inactive) | > 100 µM (inactive) | > 100 µM (inactive) | > 100 µM (inactive) | > 100 µM (inactive)
5 | Cc1ccc(/N=C2\C(=O)C3=C(OC(C)(C)CC3)c3ccccc32)cc1 | 0.247 µM (active) | 1.77 µM (inactive) | 0.459 µM (active) | 1.69 µM (inactive) | 0.851 µM (active) | 0.366 µM (active) | 0.313 µM (active) | 1.4 µM (inactive) | 0.542 µM (active) | 0.652 µM (active) | 0.318 µM (active) | 2.86 µM (inactive) | 0.748 µM (active) | 0.951 µM (active) | 1.78 µM (inactive) | 0.729 µM (active) | 1.21 µM (inactive) | 1.83 µM (inactive) | 1.22 µM (inactive) | 0.986 µM (active)
6 | N#C/C(=C\c1ccccc1)c1nc(-c2cc3ccccc3oc2=O)cs1 | > 100 µM (inactive) | > 100 µM (inactive) | > 100 µM (inactive) | > 100 µM (inactive) | 74.3 µM (inactive) | > 100 µM (inactive) | 38.6 µM (inactive) | > 100 µM (inactive) | 30.9 µM (inactive) | 93.1 µM (inactive) | > 100 µM (inactive) | > 100 µM (inactive) | > 100 µM (inactive) | > 100 µM (inactive) | 53.5 µM (inactive) | > 100 µM (inactive) | > 100 µM (inactive) | > 100 µM (inactive) | > 100 µM (inactive) | 41.5 µM (inactive)
7 | CC(=O)OCC1OC(OCCCOP(=S)(OCCC#N)OCC2OC(n3ccc(N)nc3=O)C(OC(=O)c3ccccc3)C2OC(=O)c2ccccc2)C(OC(C)=O)C(OC(C)=O)C1OC(C)=O (stereo not given) | > 100 µM (inactive) | > 100 µM (inactive) | > 100 µM (inactive) | > 100 µM (inactive) | > 100 µM (inactive) | > 100 µM (inactive) | > 100 µM (inactive) | > 100 µM (inactive) | 43.5 µM (inactive) | > 100 µM (inactive) | > 100 µM (inactive) | > 100 µM (inactive) | > 100 µM (inactive) | > 100 µM (inactive) | > 100 µM (inactive) | > 100 µM (inactive) | > 100 µM (inactive) | > 100 µM (inactive) | > 100 µM (inactive) | > 100 µM (inactive)
8 | CC(=O)OC(CN1CCN(c2ccccn2)CC1)Cn1sc2nc(C)cc(C)c2c1=O (stereo not given) | 18.6 µM (inactive) | 19.5 µM (inactive) | 16.5 µM (inactive) | 15.8 µM (inactive) | > 100 µM (inactive) | 28 µM (inactive) | 16.4 µM (inactive) | > 100 µM (inactive) | 28.8 µM (inactive) | 16.3 µM (inactive) | 27 µM (inactive) | > 100 µM (inactive) | 17.7 µM (inactive) | 13.2 µM (inactive) | 14.9 µM (inactive) | 5.58 µM (inactive) | 20 µM (inactive) | 20.6 µM (inactive) | 17.5 µM (inactive) | 22.4 µM (inactive)
9 | C=CCN1CCC2(CC1)NC(=O)c1ccccc1O2 | > 100 µM (inactive) | > 100 µM (inactive) | > 100 µM (inactive) | > 100 µM (inactive) | > 100 µM (inactive) | > 100 µM (inactive) | > 100 µM (inactive) | > 100 µM (inactive) | > 100 µM (inactive) | > 100 µM (inactive) | > 100 µM (inactive) | > 100 µM (inactive) | > 100 µM (inactive) | > 100 µM (inactive) | > 100 µM (inactive) | > 100 µM (inactive) | > 100 µM (inactive) | > 100 µM (inactive) | > 100 µM (inactive) | > 100 µM (inactive)
10 | COc1ccc(CC2C3=C(CCN2C(=O)C2CCC2)CC2(CC3)OCCO2)cc1O (stereo not given) | 29 µM (inactive) | 28.2 µM (inactive) | 21 µM (inactive) | 22.8 µM (inactive) | 45.6 µM (inactive) | 44.8 µM (inactive) | 84.1 µM (inactive) | 20.5 µM (inactive) | 33.6 µM (inactive) | 0.182 µM (active) | 16.3 µM (inactive) | 34.8 µM (inactive) | 30.5 µM (inactive) | 30.3 µM (inactive) | 35.2 µM (inactive) | 37 µM (inactive) | 55.2 µM (inactive) | 40.9 µM (inactive) | 31.3 µM (inactive) | 41.4 µM (inactive)
11 | COc1cc(/C=C2\CCC/C(=C\c3ccc(O)c(OC)c3)C2=O)ccc1O [CYCLOVALONE] | 7.6 µM (inactive) | 2.77 µM (inactive) | 2.25 µM (inactive) | 14.2 µM (inactive) | 6.15 µM (inactive) | 3.29 µM (inactive) | 2.06 µM (inactive) | 2.92 µM (inactive) | 2.84 µM (inactive) | 2.13 µM (inactive) | 2.91 µM (inactive) | 6.17 µM (inactive) | 5.01 µM (inactive) | 2.51 µM (inactive) | 2.07 µM (inactive) | 2.83 µM (inactive) | 3.41 µM (inactive) | 2.73 µM (inactive) | 3.66 µM (inactive) | 7.35 µM (inactive)
12 | CCC1(O)C(=O)OCc2c1cc1n(c2=O)Cc2cc3cc4c(cc3nc2-1)OCO4 (stereo not given) | 0.0113 µM (active) | 0.0233 µM (active) | < 0.01 µM (active) | 0.0713 µM (active) | < 0.01 µM (active) | < 0.01 µM (active) | < 0.01 µM (active) | < 0.01 µM (active) | < 0.01 µM (active) | < 0.0111 µM (active) | < 0.01 µM (active) | < 0.01 µM (active) | 0.0242 µM (active) | < 0.01 µM (active) | < 0.01 µM (active) | < 0.01 µM (active) | 0.112 µM (active) | < 0.01 µM (active) | 0.204 µM (active) | 0.0551 µM (active)
13 | CCOC(=O)c1c(O)nc(O)c(CC)c1C | > 100 µM (inactive) | > 100 µM (inactive) | > 100 µM (inactive) | > 100 µM (inactive) | > 100 µM (inactive) | > 100 µM (inactive) | > 100 µM (inactive) | > 100 µM (inactive) | > 100 µM (inactive) | > 100 µM (inactive) | > 100 µM (inactive) | > 100 µM (inactive) | > 100 µM (inactive) | > 100 µM (inactive) | > 100 µM (inactive) | > 100 µM (inactive) | > 100 µM (inactive) | > 100 µM (inactive) | > 100 µM (inactive) | > 100 µM (inactive)
14 | C/C(=N\NC(=O)/C(C#N)=C\c1ccc(N(CCC#N)CCC#N)cc1)c1ccccc1 | > 10 µM (inactive) | > 10 µM (inactive) | > 10 µM (inactive) | > 10 µM (inactive) | 4.1 µM (inactive) | > 10 µM (inactive) | > 10 µM (inactive) | > 10 µM (inactive) | > 10 µM (inactive) | > 10 µM (inactive) | > 10 µM (inactive) | > 10 µM (inactive) | > 10 µM (inactive) | > 10 µM (inactive) | > 10 µM (inactive) | > 10 µM (inactive) | > 10 µM (inactive) | > 10 µM (inactive) | > 10 µM (inactive) | > 10 µM (inactive)
